According to ChEMBL document CHEMBL1201862, “PubChem BioAssay data set” (2004):
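Grown in 96-well plates, cells were treated for 48 hours with each compound at five concentrations. Insufficient inhibition: endpoint recorded as highest concentration tested. GI50: concentration for 50% inhibition of growth.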 Activity calls are given as the source filed them. No stated cut-off is given here; in the data, active = GI50 up to about 1.1 µM and inactive = higher.

Experiments:
Experiment in all cases: NCI-60 cell line screen, 48 h
786-0 = test system: 786-0
BT-549 = test system: BT-549
CCRF-CEM = test system: CCRF-CEM
DU-145 = test system: DU-145
HCC 2998 = test system: HCC 2998
HL-60 = test system: HL-60
HOP-62 = test system: HOP-62
HT-29 = test system: HT-29
K562 = test system: K562
NCI-H23 = test system: NCI-H23
OVCAR-4 = test system: OVCAR-4
OVCAR-5 = test system: OVCAR-5
PC-3 = test system: PC-3
RPMI-8226 = test system: RPMI-8226
SF-539 = test system: SF-539
SK-MEL-28 = test system: SK-MEL-28
SN12C = test system: SN12C
SNB-75 = test system: SNB-75
SR = test system: SR
SK-MEL-2 = test system: SK-MEL-2

SMILES | GI50 (786-0) | GI50 (BT-549) | GI50 (CCRF-CEM) | GI50 (DU-145) | GI50 (HCC 2998) | GI50 (HL-60) | GI50 (HOP-62) | GI50 (HT-29) | GI50 (K562) | GI50 (NCI-H23) | GI50 (OVCAR-4) | GI50 (OVCAR-5) | GI50 (PC-3) | GI50 (RPMI-8226) | GI50 (SF-539) | GI50 (SK-MEL-28) | GI50 (SN12C) | GI50 (SNB-75) | GI50 (SR) | GI50 (SK-MEL-2)
CC(C)Oc1cc2c(cc1O)CC[C@@H]1[C@@H]2CC[C@]2(C)[C@@H](O)CC[C@@H]12 | 4.65 µM (inactive) | 5.71 µM (inactive) | 2.9 µM (inactive) | 7.28 µM (inactive) | 5.26 µM (inactive) | 1.71 µM (inactive) | 4.15 µM (inactive) | 9.84 µM (inactive) | 1.51 µM (inactive) | 7.19 µM (inactive) | 9.64 µM (inactive) | 27.5 µM (inactive) | 8.97 µM (inactive) | 4.29 µM (inactive) | 2.42 µM (inactive) | 8.3 µM (inactive) | 5.66 µM (inactive) | 4.69 µM (inactive) | 0.575 µM (active) | –
O=[N+]([O-])c1ccc2c(c1)C(N1CCN(CCO)CC1)Cc1ccc(F)cc1S2 (stereo not given) | 12 µM (inactive) | 10.8 µM (inactive) | 3.18 µM (inactive) | 14.8 µM (inactive) | 2.58 µM (inactive) | 5.02 µM (inactive) | 17.1 µM (inactive) | 2.49 µM (inactive) | 2.29 µM (inactive) | 13.5 µM (inactive) | 12.4 µM (inactive) | 13.4 µM (inactive) | 2.65 µM (inactive) | – | 6.22 µM (inactive) | 1.96 µM (inactive) | 11.5 µM (inactive) | 2.05 µM (inactive) | 4.04 µM (inactive) | –
S=C1c2ccccc2N=C(NC2CCCC2)C2CSCN12 (stereo not given) | > 100 µM (inactive) | > 100 µM (inactive) | 32 µM (inactive) | > 100 µM (inactive) | 65.6 µM (inactive) | – | > 100 µM (inactive) | 48.5 µM (inactive) | 39.8 µM (inactive) | – | > 100 µM (inactive) | > 100 µM (inactive) | 40.6 µM (inactive) | 75.2 µM (inactive) | – | 89.7 µM (inactive) | > 100 µM (inactive) | – | 39.6 µM (inactive) | > 100 µM (inactive)
C=CC[C@H]1[C@H](O[Si](C)(C)C(C)(C)C)C=CC(=O)[C@@H]1CC(=O)N(Cc1ccccc1)Cc1ccccc1 | 17.5 µM (inactive) | 16.9 µM (inactive) | 7.85 µM (inactive) | 27.2 µM (inactive) | 20.3 µM (inactive) | 5.48 µM (inactive) | 25.6 µM (inactive) | 6.35 µM (inactive) | 4.69 µM (inactive) | 5.46 µM (inactive) | 17.5 µM (inactive) | 32.4 µM (inactive) | 10.4 µM (inactive) | 9.89 µM (inactive) | 25.1 µM (inactive) | 49.5 µM (inactive) | 18.8 µM (inactive) | – | 9.29 µM (inactive) | 14.8 µM (inactive)
OCC1OC(OCC(O)C(O)C(O)C(/C=N/Nc2ccccc2)=N/Nc2ccccc2)C(O)C(O)C1O (stereo not given) | > 100 µM (inactive) | > 100 µM (inactive) | > 100 µM (inactive) | > 100 µM (inactive) | > 100 µM (inactive) | > 100 µM (inactive) | > 100 µM (inactive) | > 100 µM (inactive) | – | > 100 µM (inactive) | – | > 100 µM (inactive) | > 100 µM (inactive) | > 100 µM (inactive) | 79.3 µM (inactive) | > 100 µM (inactive) | > 100 µM (inactive) | > 100 µM (inactive) | > 100 µM (inactive) | –
O=C(O)CSC(CC(=O)c1ccc(Cl)cc1)c1ccc(Cl)cc1 (stereo not given) | 21.8 µM (inactive) | 29.9 µM (inactive) | 8.71 µM (inactive) | 34.8 µM (inactive) | – | 2.37 µM (inactive) | 32.9 µM (inactive) | 22.1 µM (inactive) | 32.1 µM (inactive) | 42.7 µM (inactive) | 27.4 µM (inactive) | > 100 µM (inactive) | 37.4 µM (inactive) | 6.95 µM (inactive) | 36.6 µM (inactive) | – | 43 µM (inactive) | 49.8 µM (inactive) | 2.36 µM (inactive) | 50.8 µM (inactive)
COc1nc(N)c(C#N)c(C#N)c1C#N | > 10 µM (inactive) | > 10 µM (inactive) | – | > 10 µM (inactive) | > 10 µM (inactive) | > 10 µM (inactive) | > 10 µM (inactive) | > 10 µM (inactive) | > 10 µM (inactive) | > 10 µM (inactive) | > 10 µM (inactive) | > 10 µM (inactive) | > 10 µM (inactive) | > 10 µM (inactive) | > 10 µM (inactive) | > 10 µM (inactive) | > 10 µM (inactive) | > 10 µM (inactive) | > 10 µM (inactive) | –
CCOc1cc(C2CC(c3ccc(NS(=O)(=O)c4cc([N+](=O)[O-])ccc4C)cc3)=NN2c2ccc([N+](=O)[O-])cc2[N+](=O)[O-])ccc1O (stereo not given) | 2.58 µM (inactive) | 18 µM (inactive) | 43.7 µM (inactive) | 12.8 µM (inactive) | – | 40.9 µM (inactive) | 10.7 µM (inactive) | 41.6 µM (inactive) | 21.3 µM (inactive) | 16.7 µM (inactive) | 3.3 µM (inactive) | 23.4 µM (inactive) | 20 µM (inactive) | 11.3 µM (inactive) | 7.45 µM (inactive) | 8 µM (inactive) | 3.15 µM (inactive) | 5.82 µM (inactive) | 28.5 µM (inactive) | 19.5 µM (inactive)
COC(=O)C(CC12CC3CC(CC(C3)C1)C2)NC(=O)C(N)CC(=O)O (stereo not given) | > 100 µM (inactive) | > 100 µM (inactive) | > 100 µM (inactive) | > 100 µM (inactive) | > 100 µM (inactive) | – | > 100 µM (inactive) | > 100 µM (inactive) | > 100 µM (inactive) | > 100 µM (inactive) | > 100 µM (inactive) | > 100 µM (inactive) | > 100 µM (inactive) | > 100 µM (inactive) | – | > 100 µM (inactive) | > 100 µM (inactive) | > 100 µM (inactive) | > 100 µM (inactive) | > 100 µM (inactive)
Cc1nc2ccc(Cl)cc2c2c1CCN2c1ccccc1 | 10.4 µM (inactive) | 15.3 µM (inactive) | 5.62 µM (inactive) | 19.5 µM (inactive) | 12.1 µM (inactive) | 2.72 µM (inactive) | 21.5 µM (inactive) | 7.18 µM (inactive) | 5.05 µM (inactive) | 14.1 µM (inactive) | 26.4 µM (inactive) | – | 10.6 µM (inactive) | 12.4 µM (inactive) | 13.4 µM (inactive) | 14 µM (inactive) | 0.975 µM (active) | 23.7 µM (inactive) | 14.3 µM (inactive) | –
O=C1CC(Cl)c2c(Cl)sc(Cl)c21 (stereo not given) | 1.47 µM (inactive) | 4.06 µM (inactive) | 0.255 µM (active) | 2.47 µM (inactive) | 2.36 µM (inactive) | 1.4 µM (inactive) | 6 µM (inactive) | 2.23 µM (inactive) | 2.85 µM (inactive) | 2.88 µM (inactive) | 4.57 µM (inactive) | 16.2 µM (inactive) | 2.2 µM (inactive) | 0.155 µM (active) | 2.63 µM (inactive) | 2.1 µM (inactive) | 1.84 µM (inactive) | 4.56 µM (inactive) | 1.41 µM (inactive) | –
O=C(O)C1C2C=CC(O2)C1C(=O)Nc1ccccc1 (stereo not given) | > 100 µM (inactive) | > 100 µM (inactive) | > 100 µM (inactive) | > 100 µM (inactive) | – | – | > 100 µM (inactive) | > 100 µM (inactive) | > 100 µM (inactive) | > 100 µM (inactive) | > 100 µM (inactive) | > 100 µM (inactive) | > 100 µM (inactive) | > 100 µM (inactive) | – | > 100 µM (inactive) | > 100 µM (inactive) | > 100 µM (inactive) | > 100 µM (inactive) | > 100 µM (inactive)
C=C(C)/C=C/C(O)[C@](C)(O)[C@H]1[C@H](O)C[C@@]2(C)[C@@H]3CCc4c(cc(OC5OC(CO)C(O)C(O)C5O)c(O)c4C)C3(C)C(=O)C[C@]12C (stereo not given in full) | > 100 µM (inactive) | > 10 µM (inactive) | > 100 µM (inactive) | > 100 µM (inactive) | > 100 µM (inactive) | – | > 100 µM (inactive) | > 100 µM (inactive) | > 100 µM (inactive) | 64.4 µM (inactive) | > 100 µM (inactive) | > 100 µM (inactive) | > 100 µM (inactive) | – | 96.4 µM (inactive) | > 100 µM (inactive) | > 100 µM (inactive) | > 100 µM (inactive) | > 100 µM (inactive) | > 100 µM (inactive)
COC(=O)C1C(C(=O)OC)C1(Br)CBr (stereo not given) | 20.4 µM (inactive) | 33.1 µM (inactive) | – | > 100 µM (inactive) | > 100 µM (inactive) | 43.2 µM (inactive) | > 100 µM (inactive) | 24 µM (inactive) | – | 70.1 µM (inactive) | 39.7 µM (inactive) | 25.4 µM (inactive) | > 100 µM (inactive) | 16.5 µM (inactive) | 40.6 µM (inactive) | 35.4 µM (inactive) | 27.5 µM (inactive) | > 100 µM (inactive) | 17.9 µM (inactive) | > 100 µM (inactive)
CC1(C)CCC[C@]2(C)[C@@H](C=O)C(C=O)=CC[C@@H]12 [POLYGODIAL] | 37 µM (inactive) | 25.9 µM (inactive) | 20.3 µM (inactive) | 18.5 µM (inactive) | 18.4 µM (inactive) | 18.4 µM (inactive) | 30.6 µM (inactive) | 16.4 µM (inactive) | – | 28 µM (inactive) | 15.8 µM (inactive) | 16.4 µM (inactive) | 27.7 µM (inactive) | 10.7 µM (inactive) | 19.3 µM (inactive) | 43.2 µM (inactive) | 20.6 µM (inactive) | – | 18.2 µM (inactive) | 18.1 µM (inactive)
